The subject of the first data set is psychomotor seizures induced via corneal stimulation (6 Hz) in female NMRI mice. The experiment in a line: 6 Hz electroshock seizure model (anticonvulsant properties). The class given is in vivo. The settings on record: Mus musculus, po, 32 mA, 3 s corneal stimulation, p.o., pretreatment time 60 mins, vehicle 5% cremaphor, read-out: ED50 (dose that would give a 50% protection from seizures). The text has this: The animal models being used for the discovery of novel antiepileptic drugs are numerous. Among these, a low frequency (6 Hz) electroshock seizure model has recently come into the limelight as a potential model of pharmacoresistant epilepsy (see Epilepsy: a comprehensive textbook, pag. 1477, by By Jerome Engel, Timothy A. Pedley, Jean Aicardi, Marc A Dichter, Solomon Moshé—2007—Medical), and it is therefore an animal model of primary interest in antiepileptic drug discovery. The compounds of the invention have shown remarkable activity to protect against 6 Hz seizures.
The evaluation of the anticonvulsant properties was carried out in female NMRI mice (20-25 g, Taconic, Denmark). The mice were housed in groups (8 per cage according to weight) with food and water available ad libitum The environment was temperature (20±2° C.) and humidity (55±15%) controlled, and consisted of a 12:12 h light-dark cycle (lights on 06:00 h). The experiments were performed according to the Danish Committee for Experiments on Animals. […]
For screening purposes, the test compound was tested at 1 dose at 1 time-point. In the case of protection of 3 or more out of 8 mice, the compound were further evaluated in dose response (N=8/group). […]
Turning to `CCC(C(N)=O)n1nnc2ccccc21` (racemic) [Compound 1, 2-Benzotriazol-1-yl-butyramide], the ED50 came to 38 mg/kg.

In the case of `CC[C@@H](C(N)=O)n1nnc2cc(Br)ccc21` [Compound 12, (2S)-2-(5-Bromobenzotriazol-1-yl)butanamide], the ED50 stood at 38 mg/kg.

Tested on in a further data set: not given
Test: not given
Details: not given
`NC(=O)Cn1nnc2cc(Br)ccc21` [Compound 13, 2-(5-Bromo-benzotriazol-1-yl)-acetamide] had a melting point of 221.5 to 222.5 °C.

`CCC(C(N)=O)n1nnc2c(F)cc(F)cc21` (stereo not drawn) [Compound 7, 2-(4,6-Difluoro-benzotriazol-1-yl)-butyramide] gave a melting point of 199 to 200.5 °C.

As for `Fc1cc(F)c2nnn(Cc3ncc[nH]3)c2c1`, the melting point fell in the range of 166 to 167.5 °C.

Molecule `CC[C@@H](C(N)=O)n1nnc2cc(Cl)ccc21` [Compound 18, (2S)-2-(5-Chlorobenzotriazol-1-yl)butanamide] gave a melting point of 175.5 to 177.5 °C.

`CC(C(N)=O)n1nnc2ccc(F)cc21` (stereo not drawn) [Compound 10, 2-(6-Fluoro-benzotriazol-1-yl)-propionamide]: the melting point fell in the range of 156.8 to 158 °C.

As to `NC(=O)Cn1nnc2c(F)cc(F)cc21` [Compound 9, 2-(4,6-Difluoro-benzotriazol-1-yl)-acetamide], the melting point is 247.8 to 248.9 °C.

`CCC(C(N)=O)n1nnc2cc(F)cc(F)c21` (stereo not drawn) [Compound 6, 2-(5,7-Difluoro-benzotriazol-1-yl)-butyramide] registered a melting point of 155 to 156.3 °C.

As to `CC[C@@H](C(N)=O)n1nnc2c(F)cccc21` [Compound 24, (2S)-2-(4-Fluorobenzotriazol-1-yl)butanamide], the melting point was 163.9 to 165.1 °C.

Molecule `Brc1ccc2c(c1)nnn2Cc1c[nH]cn1` registered a melting point of 178.3 to 180.8 °C.

On to `CC(C)[C@@H](C(N)=O)n1nnc2ccccc21` [Compound 16, (2S)-2-(Benzotriazol-1-yl)-3-methyl-butanamide], for which the melting point was in the range of 164 to 165.7 °C.

As to `CC[C@H](C(N)=O)n1nnc2cc(Br)ccc21` [Compound 21, (2R)-2-(5-Bromobenzotriazol-1-yl)butanamide], the melting point was in the range of 206.2 to 207.3 °C.

Regarding `CC[C@H](C(N)=O)n1nnc2c(F)cccc21` [Compound 23, (2R)-2-(4-Fluorobenzotriazol-1-yl)butanamide], the melting point fell in the range of 162.5 to 163.7 °C.

`NC(=O)Cn1nnc2cc(F)cc(F)c21` [Compound 8, 2-(5,7-Difluoro-benzotriazol-1-yl)-acetamide] returned a melting point of 236.5 to 238 °C.

With `CC(C(N)=O)n1nnc2cc(F)ccc21` (stereo not drawn) [Compound 11, 2-(5-Fluoro-benzotriazol-1-yl)-propionamide], the melting point lay in the range of 138.6 to 140.1 °C.

In turn, `CC[C@@H](C(N)=O)n1nnc2c(Cl)cccc21` [Compound 15, (2S)-2-(4-Chlorobenzotriazol-1-yl)butanamide] gave a melting point of 153 to 154.5 °C.

As for `CCC(C(N)=O)n1nnc2ccc(Br)cc21` (stereo not drawn) [Compound 3, 2-(6-Bromo-benzotriazol-1-yl)-butyramide], the melting point is 181.2 to 182.1 °C.

Consider `CC(C)CC(C(N)=O)n1nnc2ccccc21` (stereo not drawn) [Compound 17, 2-(Benzotriazol-1-yl)-4-methyl-pentanamide], for which the melting point was in the range of 177.5 to 178.8 °C.

In the case of `c1ccc2c(c1)nnn2Cc1c[nH]cn1`, the melting point lay in the range of 137.8 to 138.9 °C.

Molecule `CS(=O)(=O)c1ccc2nnn(CC(N)=O)c2c1` [Compound 5, 2-(6-Methanesulfonyl-benzotriazol-1-yl)-acetamide] yielded a melting point of 241.8 to 242.7 °C.

In general, ED50 refers to the midpoint of the dose-response relation. Usually melting point stands for the temperature, or range, at which the solid turns liquid.
